Test results published in the Kinase Knowledgebase extract (Sharma et al. 2016).

biological target: EGFR (human) (UniProt P00533); details: a431
Sequence (P00533 whole entry, looked up): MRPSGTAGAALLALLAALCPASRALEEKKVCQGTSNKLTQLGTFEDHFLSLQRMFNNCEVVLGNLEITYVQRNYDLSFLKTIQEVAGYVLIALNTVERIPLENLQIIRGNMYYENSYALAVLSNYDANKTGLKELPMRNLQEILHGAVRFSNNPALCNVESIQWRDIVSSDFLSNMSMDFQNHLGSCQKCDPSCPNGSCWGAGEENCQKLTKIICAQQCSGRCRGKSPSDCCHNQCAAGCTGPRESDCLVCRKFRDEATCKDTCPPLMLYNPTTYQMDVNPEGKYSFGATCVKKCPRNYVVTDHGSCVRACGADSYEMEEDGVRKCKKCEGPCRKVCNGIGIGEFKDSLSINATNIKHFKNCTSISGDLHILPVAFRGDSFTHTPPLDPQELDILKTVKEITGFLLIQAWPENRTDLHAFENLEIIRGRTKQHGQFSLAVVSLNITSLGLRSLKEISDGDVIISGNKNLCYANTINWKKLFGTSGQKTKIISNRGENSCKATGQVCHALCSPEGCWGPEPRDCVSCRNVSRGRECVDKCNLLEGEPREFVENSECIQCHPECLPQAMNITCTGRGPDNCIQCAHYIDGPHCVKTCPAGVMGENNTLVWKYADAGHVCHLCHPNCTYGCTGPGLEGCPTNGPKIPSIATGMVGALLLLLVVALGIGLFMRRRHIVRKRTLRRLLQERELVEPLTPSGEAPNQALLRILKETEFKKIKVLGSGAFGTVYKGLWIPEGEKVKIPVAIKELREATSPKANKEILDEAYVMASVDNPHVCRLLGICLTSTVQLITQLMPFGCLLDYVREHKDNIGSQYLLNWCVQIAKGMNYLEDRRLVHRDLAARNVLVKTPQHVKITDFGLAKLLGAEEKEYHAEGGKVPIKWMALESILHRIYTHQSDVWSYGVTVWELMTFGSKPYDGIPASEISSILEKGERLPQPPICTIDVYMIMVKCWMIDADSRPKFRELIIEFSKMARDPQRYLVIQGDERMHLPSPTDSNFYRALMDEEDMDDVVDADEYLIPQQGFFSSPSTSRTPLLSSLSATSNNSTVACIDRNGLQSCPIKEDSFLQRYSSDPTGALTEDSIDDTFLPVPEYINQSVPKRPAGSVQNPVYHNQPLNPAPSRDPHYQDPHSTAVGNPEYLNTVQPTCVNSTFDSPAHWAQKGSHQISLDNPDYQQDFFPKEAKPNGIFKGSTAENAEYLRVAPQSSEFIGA

| SMILES | IC50 [nM] |
| --- | --- |
| CCOC(=O)C1CCCN(CC(O)Cn2ccc(-c3ccc4ncnc(Nc5ccc(OCc6cccc(F)c6)c(Cl)c5)c4c3)c2)C1 (stereo unspecified) | 1700 |
| O=C(Cn1ccc(-c2ccc3ncnc(Nc4ccc(OCc5cccc(F)c5)c(Cl)c4)c3c2)c1)N1CCC(N2CCOCC2)CC1 | 853 |
| Fc1cccc(COc2ccc(Nc3ncnc4ccc(-c5ccn(CCN6CCCCC6)c5)cc34)cc2Cl)c1 | 2860 |
| O=S1(=O)CCC(NCC(O)Cn2ccc(-c3ccc4ncnc(Nc5ccc6c(cnn6Cc6cccc(F)c6)c5)c4c3)c2)CC1 (stereo unspecified) | 922 |
| CS(=O)(=O)N1CCN(CC(O)Cn2ccc(-c3ccc4ncnc(Nc5ccc(OCc6cccc(F)c6)c(Cl)c5)c4c3)c2)CC1 (stereo unspecified) | 1180 |
| O=S1(=O)CCN(CC(O)Cn2ccc(-c3ccc4ncnc(Nc5ccc(OCc6cccc(F)c6)c(Cl)c5)c4c3)c2)CC1 (stereo unspecified) | 1460 |
| CCOC(=O)C1CCN(CC(O)Cn2ccc(-c3ccc4ncnc(Nc5ccc(OCc6cccc(F)c6)c(Cl)c5)c4c3)c2)CC1 (stereo unspecified) | 2000 |
| OCc1cc(-c2ccc3ncnc(Nc4ccc(OCc5cccc(F)c5)c(Cl)c4)c3c2)c[nH]1 | 4560 |
| O[C@@H](CNC1CC1)Cn1ccc(-c2ccc3ncnc(Nc4ccc(OCc5cccc(F)c5)c(Cl)c4)c3c2)c1 | 708 |
| CC(=O)N[C@@H]1CCN(CC(O)Cn2ccc(-c3ccc4ncnc(Nc5ccc(OCc6cccc(F)c6)c(Cl)c5)c4c3)c2)C1 (stereo partly specified) | 3770 |
| CCOC(=O)C1CCN(C(=O)Cn2ccc(-c3ccc4ncnc(Nc5ccc(OCc6cccc(F)c6)c(Cl)c5)c4c3)c2)CC1 | 3320 |
| OC(CN1CC[C@@H](F)C1)Cn1ccc(-c2ccc3ncnc(Nc4ccc(OCc5cccc(F)c5)c(Cl)c4)c3c2)c1 (stereo partly specified) | 682 |
| O=C1CN(CC(O)Cn2ccc(-c3ccc4ncnc(Nc5ccc(OCc6cccc(F)c6)c(Cl)c5)c4c3)c2)CCN1 (stereo unspecified) | 1220 |
| O=C(Cn1ccc(-c2ccc3ncnc(Nc4ccc(OCc5cccc(F)c5)c(Cl)c4)c3c2)c1)N1CCS(=O)(=O)CC1 | 1490 |
| Fc1cccc(COc2ccc(Nc3ncnc4ccc(-c5ccn(CCN6CCN(C7CC7)CC6)c5)cc34)cc2Cl)c1 | 1260 |

Now those with a lower IC50, led by results:

| IC50 [nM] | SMILES |
| --- | --- |
| 612 | Fc1cccc(Cn2ncc3cc(Nc4ncnc5ccc(-c6ccn(CCN7CCCC7)c6)cc45)ccc32)c1 |
| 582 | COCCNCC(O)Cn1ccc(-c2ccc3ncnc(Nc4ccc5c(cnn5Cc5cccc(F)c5)c4)c3c2)c1 (stereo unspecified) |
| 560 | CC(Nc1ncnc2ccc(-n3cc(CCO)c(CN4CCCCC4)c3)cc12)c1ccccc1 (stereo unspecified) |
| 490 | O=S1(=O)CCC(CNCc2ccn(-c3ccc4ncnc(Nc5ccc(OCc6cccc(F)c6)c(Cl)c5)c4c3)c2)CC1 |
| 481 | O=C(Cn1ccc(-c2ccc3ncnc(Nc4ccc(OCc5cccc(F)c5)c(Cl)c4)c3c2)c1)N1CCCC1 |
| 468 | O=S1(=O)CCC(NCC(O)Cn2ccc(-c3ccc4ncnc(Nc5ccc(OCc6cccc(F)c6)c(Cl)c5)c4c3)c2)CC1 (stereo unspecified) |
| 462 | COC[C@H](O)Cn1ccc(-c2ccc3ncnc(Nc4ccc(OCc5cccc(F)c5)c(Cl)c4)c3c2)c1 |
| 415 | O[C@@H](CN1CCC(N2CCCCC2)CC1)Cn1ccc(-c2ccc3ncnc(Nc4ccc(OCc5cccc(F)c5)c(Cl)c4)c3c2)c1 |
| 360 | OC(CN1CC[C@@H](O)C1)Cn1ccc(-c2ccc3ncnc(Nc4ccc(OCc5cccc(F)c5)c(Cl)c4)c3c2)c1 (stereo partly specified) |
| 352 | Fc1cccc(Cn2ncc3cc(Nc4ncnc5ccc(-c6ccn(CCOC7CCCCO7)c6)cc45)ccc32)c1 (stereo unspecified) |
| 273 | OCCC1CCN(CC(O)Cn2ccc(-c3ccc4ncnc(Nc5ccc6c(cnn6Cc6cccc(F)c6)c5)c4c3)c2)CC1 (stereo unspecified) |
| 252 | OC[C@@H]1CCCN1C[C@@H](O)Cn1ccc(-c2ccc3ncnc(Nc4ccc(OCc5cccc(F)c5)c(Cl)c4)c3c2)c1 |
| 140 | CC(Nc1ncnc2ccc(-n3cc(CCO)c(C(=O)N4CCOCC4)c3)cc12)c1ccccc1 (stereo unspecified) |
| 140 | Cc1ccc(Oc2ccc(Nc3ncnc4ccc(-n5cc(CCO)c(C(=O)NCCN6CCCC6)c5)cc34)cc2C)cn1 |
| 139 | NC(=O)C1CCN(CC(O)Cn2ccc(-c3ccc4ncnc(Nc5ccc(OCc6cccc(F)c6)c(Cl)c5)c4c3)c2)CC1 (stereo unspecified) |
| 60 | OCCc1cn(-c2ccc3ncnc(Nc4ccc(F)c(Cl)c4)c3c2)cc1CN1CCCC1 |
